{
  "source": "patent EP3574917A1",
  "about": "“ANTI-CANCER AGENT, METHOD FOR SCREENING FOR ANTI-CANCER AGENT, KIT FOR DETERMINATION OF EFFICACY ON CANCER, AND METHOD FOR DETERMINING EFFICACY ON CANCER” (University of Miyazaki, priority 2017, dated 2018)",
  "assay_in_all_cases": "cellular proliferative potential (cell counting kit-8)",
  "type_in_all_cases": "cell-based",
  "key": {"[1]": {"tested_on": "U2OS", "conditions": "U2OS (NDRG2 hardly expressed), in the presence of AdOX, over time", "protocol": "(§1) In the following Examples, HTLV-1-uninfected T-cell lymphocytic acute leukemia T-ALL (Jurkat and MOLT4), an HTLV-1-infected cell line (HUT102), an ATLL cell line (KOB), an osteosarcoma cell line (U2OS), and a uterine cancer cell line (HeLa) were used as cell lines. The cell lines described above were cultured in a RPM11640 or DMEM culture solution, to which 10% fetal bovine serum (FBS) supplemented or unsupplemented with IL2 (50 U/mL) was added, under 5% carbon dioxide at 37°C.\n(§2) For each established cell line, 2 ×10^3 cells were cultured on a 96-well plate, and cell counting kit-8 (manufactured by DOJINDO CO., LTD) was added at a predetermined time. The number of cells was quantified based on an absorbance of 450 nm or 490 nm, to evaluate cellular proliferative potential.\n(§3) In the cell lines of a solid cancer, the influence of the decreased expression of a PRMT5 gene was also evaluated in a manner similar to the manner of Example 2. The cellular proliferative potential of the parent lines, shluc cell lines, shPRMT5-3 cell lines, and shPRMT5-4 cell lines of U2OS and HeLa, and an influence on the cellular proliferative potential of a PRMT inhibitor were evaluated."}, "[2]": {"tested_on": "HeLa", "conditions": "HeLa (NDRG2 hardly expressed), in the presence of AdOX, over time", "protocol": "as §1, §2, §3"}, "[3]": {"tested_on": "KOB", "conditions": "KOB (NDRG2 hardly expressed), AdOX added to culture medium at start of culture, over time", "protocol": "as §1, §2\n(§4) In addition to HUT102 and KOB, Jurkat and MOLT4 were cultured. At the time of the start of the culture, AdOX (manufactured by Sigma-Aldrich Co. LLC) as a PRMT5 inhibitor was added to each culture medium. Like the Examples 2 described above, cellular proliferative potential was evaluated."}, "[4]": {"tested_on": "Jurkat", "conditions": "without the decreased expression of NDRG2, AdOX added at start of culture", "protocol": "as §1, §2, §4"}, "[5]": {"tested_on": "MOLT4", "conditions": "MOLT4, without the decreased expression of NDRG2, AdOX added at start of culture", "protocol": "as §1, §2, §4"}, "[6]": {"tested_on": "HUT102", "conditions": "HUT102 (NDRG2 hardly expressed), AdOX added to culture medium at start of culture, over time", "protocol": "as §1, §2, §4"}},
  "data": [
    {"smiles": "Nc1ncnc2c1ncn2[C@@H](C=O)O[C@@H](C=O)CO", "note": "[AdOX, adenosine-2',3'-dialdehyde]", "values": [
      {"measurement": "suppression of cell proliferation", "setting": "[1]", "result": "suppressed cell proliferation in a concentration-dependent manner"},
      {"measurement": "suppression of cell proliferation", "setting": "[2]", "result": "suppressed cell proliferation in a concentration-dependent manner"},
      {"measurement": "suppression of cell proliferation", "setting": "[3]", "result": "exhibited the suppression of cell proliferation in concentration-dependent manners"},
      {"measurement": "suppression of cell proliferation", "setting": "[4]", "result": "not observed"},
      {"measurement": "suppression of cell proliferation", "setting": "[5]", "result": "not observed"},
      {"measurement": "suppression of cell proliferation", "setting": "[6]", "result": "exhibited the suppression of cell proliferation in concentration-dependent manners"}
    ]}
  ]
}
